From ChEMBL document CHEMBL5321207, “Design, synthesis and biological characterization of novel activators of the TrkB neurotrophin receptor” (Eur J Med Chem, 2023)
Activity calls are given as the source filed them. No cut-off for these calls is given here.

Key:
[1] = Chromatographic hydrophobicity index of compound at pH 7.4 by HPLC analysis; type: physicochemical
[2] = Chromatographic hydrophobicity index, log D of compound at pH 7.4 by HPLC analysis; type: physicochemical; details: buffer
Cortical neurone [3] = assay: Neurotoxicity against Sprague-Dawley rat primary cortical neurons at 1 uM incubated for 24 hrs by HCS analysis; type: functional, cell-based
Cortical neurone [4] = assay: Neurotoxicity against Sprague-Dawley rat primary cortical neurons at 10 uM incubated for 24 hrs by HCS analysis; type: functional, cell-based
SH-SY5Y [5] = assay: Induction of neurite outgrowth in retinoid acid-treated human SH-SY5Y cells at 100 nM incubated for 2 days by fluorescence microscopy relative to retinoid acid; type: functional; details: time 2 day
SH-SY5Y [6] = assay: Induction of neurite outgrowth in retinoid acid-treated human SH-SY5Y cells at 1000 nM incubated for 2 days by fluorescence microscopy relative to retinoid acid; type: functional; details: time 2 day
SH-SY5Y [7] = assay: Induction of neurite outgrowth in retinoid acid-treated human SH-SY5Y cells at 10 nM incubated for 2 days by fluorescence microscopy relative to retinoid acid; type: functional; details: time 2 day
[8] = target: BDNF/NT-3 growth factors receptor (Mus musculus) (UniProt P15209); assay: Induction of TrkB phosphorylation transfected in mouse NIH3T3 cells at 1 uM incubated for 20 mins followed by serum deprivation for 6 hrs by Western blot analysis; type: cell-based; details: filed as activator, time 6.33 hrs
Chain of BDNF/NT-3 growth factors receptor (Mus musculus) (P15209 whole entry): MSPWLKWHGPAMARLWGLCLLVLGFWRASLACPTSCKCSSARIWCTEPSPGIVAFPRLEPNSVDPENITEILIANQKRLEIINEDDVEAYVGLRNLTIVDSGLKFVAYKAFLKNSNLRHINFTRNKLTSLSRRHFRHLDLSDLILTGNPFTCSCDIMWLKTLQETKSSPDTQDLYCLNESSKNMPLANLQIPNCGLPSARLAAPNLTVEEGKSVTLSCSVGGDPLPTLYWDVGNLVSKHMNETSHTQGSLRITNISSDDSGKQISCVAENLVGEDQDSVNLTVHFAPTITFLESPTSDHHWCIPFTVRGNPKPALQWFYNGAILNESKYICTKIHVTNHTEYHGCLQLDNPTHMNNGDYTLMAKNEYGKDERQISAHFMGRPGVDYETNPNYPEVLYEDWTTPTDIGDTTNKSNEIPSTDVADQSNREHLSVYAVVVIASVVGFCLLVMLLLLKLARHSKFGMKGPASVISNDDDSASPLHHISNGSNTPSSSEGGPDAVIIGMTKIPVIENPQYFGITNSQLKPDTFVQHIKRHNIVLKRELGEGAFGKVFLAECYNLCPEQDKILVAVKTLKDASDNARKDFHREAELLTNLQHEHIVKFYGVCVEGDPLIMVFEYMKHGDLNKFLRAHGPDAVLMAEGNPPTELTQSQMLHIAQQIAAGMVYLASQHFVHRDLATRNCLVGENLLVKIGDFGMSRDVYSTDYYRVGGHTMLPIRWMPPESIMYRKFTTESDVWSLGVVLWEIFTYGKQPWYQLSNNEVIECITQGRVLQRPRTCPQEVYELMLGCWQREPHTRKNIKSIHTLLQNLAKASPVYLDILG

[9] = test system: Primary spinal motor neuron; assay: (§1) Neuroprotective activity against glutamate-treated Wistar rat primary spinal motor neurons assessed as neuronal survival pretreated for 1 hr followed by glutamate treatment for 20 mins and subsequent washout of compound and glutamate and re-treatment of compound for 48 hrs by imaging analysis; type: functional, cell-based; details: dose 0.5-1000 nM, time 49.33 hrs
[10] = test system: Primary spinal motor neuron; assay: as §1, with “increase in neurite network” for “neuronal survival”; type: functional, cell-based; details: dose 0.5-1000 nM, time 49.33 hrs
[11] = test system: Primary spinal motor neuron; assay: as §1, with “decrease in TDP43 accumulation” for “neuronal survival”; type: functional, cell-based; details: dose 0.5-1000 nM, time 49.33 hrs
[12] = target: BDNF/NT-3 growth factors receptor (Mus musculus) (UniProt P15209); assay: Induction of TrkB phosphorylation in mouse primary cortical astrocytes assessed as Akt phosphorylation at 1 uM incubated for 20 mins followed by serum deprivation for 6 hrs by Western blot analysis; type: cell-based; details: Cortex, filed as activator, time 6.33 hrs
NIH3T3 = assay: Cytotoxicity against serum-starved mouse NIH3T3 cells transfected with TrkB assessed as cell death at 1 uM measured after 24 hrs by CellTox green dye/Hoechst staining based microscopy; type: toxicity; details: nih3t3, 24 h
[13] = target: BDNF/NT-3 growth factors receptor (Mus musculus) (UniProt P15209); assay: Induction of TrkB phosphorylation in mouse primary cortical astrocytes at 1 uM incubated for 20 mins followed by serum deprivation for 6 hrs by Western blot analysis; type: cell-based; details: Cortex, filed as activator, time 6.33 hrs
Hepatocyte = assay: Hepatotoxicity against mouse hepatocytes at 1 uM incubated for 24 hrs by HCS analysis; type: functional, cell-based
Cortical neurone [14] = assay: Neurotoxicity against Sprague-Dawley rat primary cortical neurons at 100 uM incubated for 24 hrs by HCS analysis; type: functional, cell-based

Row | SMILES | CHI [1] | chromatographic logD [2] | Activity (Cortical neurone [3]) | Activity (Cortical neurone [4]) | Activity (SH-SY5Y [5]) | Activity (SH-SY5Y [6]) | Activity (SH-SY5Y [7]) | Activity [8] | Activity [9] | Activity [10] | Activity [11] | Activity [12] | Activity (NIH3T3) | Activity [13] | Activity (Hepatocyte) | Activity (Cortical neurone [14])
1 | CC[C@H](C)[C@H](N)C(=O)NCCNC(=O)c1cc(C(=O)NCCO)cc(C(=O)NCCO)c1.Cl | 19.5 | -0.24 | inactive | inactive | 158.93% | 143.82% | 139.04% | – | – | – | – | – | – | – | – | –
2 | O=C(NCCO)c1cc(C(=O)NCCO)cc(C(=O)NCC2CCN(CC3CCCCC3)CC2)c1 | 33.4 | 0.48 | – | – | 181.13% | 113.54% | 183.59% | Active | Dose-Dependent Effect | Dose-Dependent Effect | Dose-Dependent Effect | Active | Non-Toxic | Active | – | –
3 | O=C(NCCO)c1cc(C(=O)NCCO)cc(C(=O)NCCN2CCOCC2)c1 | 18.1 | -0.31 | inactive | – | 107.68% | 114.91% | 90.19% | – | – | – | – | Active | – | Active | inactive | –
4 | O=C(NCCO)c1cc(C(=O)NCCO)cc(C(=O)NCCO)c1 | 13.8 | -0.53 | inactive | inactive | 124.7% | 113.86% | 120.18% | Active | – | – | – | Active | Non-Toxic | Active | – | inactive
5 | CCCN1CCC(CNC(=O)c2cc(C(=O)NCCO)cc(C(=O)NCCO)c2)CC1 | 17.6 | -0.34 | inactive | inactive | 102.23% | 104.04% | 97.67% | Active | – | – | – | – | Non-Toxic | – | inactive | inactive
6 | O=C(NCCO)c1cc(C(=O)NCCO)cc(C(=O)NCCCN2CCOCC2)c1 | 18.7 | -0.28 | inactive | – | 127.21% | 122.77% | 121.11% | – | – | – | – | – | – | – | – | –
